Assay results published in patent publication US20240218022A1, “ANTI-VISTA MACROCYCLIC PEPTIDES AND COMPOSITIONS” (BRISTOL-MYERS SQUIBB COMPANY, priority 2022, published 2024).
Starred links: 1 amine or outer side, 2 acyl side, 3 side chain; linkers in the order of their positions; H or OH if unused. Positions of bridges follow the written chain, without caps; N, C: chain ends. Non-standard residues stand in square brackets, D forms with d. Residues, ends and D or L forms follow the SMILES beside them. βAsp = O=C(O)[C@H](CC(=O)[*:2])N[*:1]; Aad = N[C@@H](CCCC(=O)O)C(=O)O; Cha = N[C@@H](CC1CCCCC1)C(=O)O; Ahp(2) = CCCCC[C@H](N)C(=O)O; NMeNle = CCCC[C@H](NC)C(=O)O; Tle = CC(C)(C)[C@H](N)C(=O)O; NHexGly = CCCCCCNCC(=O)O; Orn = NCCC[C@H](N)C(=O)O; Aun = NCCCCCCCCCCC(=O)O; Abu = CC[C@H](N)C(=O)O; AEEA = NCCOCCOCC(=O)O

Biological target: T1, mouse VISTA (mVISTA) (Mus musculus, UniProt Q9D659)
T1 construct: expressed in transfected cells; host or cells: Human embryonic kidney 293T cells
T1 sequence (Q9D659 33-308): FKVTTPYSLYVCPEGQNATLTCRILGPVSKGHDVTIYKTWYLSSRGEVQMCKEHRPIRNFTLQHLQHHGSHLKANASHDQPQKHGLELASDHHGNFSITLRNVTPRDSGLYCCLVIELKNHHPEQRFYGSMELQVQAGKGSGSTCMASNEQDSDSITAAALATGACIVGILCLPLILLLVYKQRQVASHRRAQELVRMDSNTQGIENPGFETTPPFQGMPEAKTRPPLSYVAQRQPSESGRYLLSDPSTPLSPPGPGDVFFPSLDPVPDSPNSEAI
Test: Cell-Based Binding High-Content Assay For mVISTA (HC CBA mVISTA)
Details: cell-based binding high-content assay, mVISTA; read-out: HC CBA miPr ISTA IC50
Method in brief: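 Read-out: Alexa 647–streptavidin signal imaged on fixed, Hoechst-stained mVISTA-293T cells, with IC50 taken from a four-parameter logistic curve. Compounds competed with 2 nM biotinylated peptide for 30 min at room temperature, tested under both no-wash and wash (1 h compound, media exchange, 1 h) formats.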

Row | Structure (SMILES) | IC50 [nM]
1 | CCCCCCN1CC(=O)N[C@@H](Cc2ccc(O)cc2)C(=O)N[C@@H](CCCC(=O)O)C(=O)N[C@@H](CC(N)=O)C(=O)N[C@@H](CCCN)C(=O)N(C)[C@@H](CCCC)C(=O)N[C@@H](CCCCC)C(=O)N2CCC[C@H]2C(=O)N[C@@H](C(C)(C)C)C(=O)N[C@@H](CO)C(=O)N[C@H](C(=O)N[C@@H](CC(=O)NCCOCCOCC(=O)N[C@@H](CC(=O)O)C(=O)NCCOCCOCC(=O)NCCCCCCCCCCC(=O)O)C(=O)O)CSCC(=O)N[C@@H](Cc2ccccc2)C(=O)N[C@@H](Cc2ccc(O)cc2)C(=O)N[C@@H](CC(=O)O)C1=O [compound 2056] ({CH2CO}-FYD[NHexGly]Y[Aad]N[Orn][NMeNle][Ahp(2)]P[Tle]SC[βAsp][AEEA]D[AEEA][Aun]-OH; thioether N-14) | 26.1
2 | CCCCCCN1CC(=O)N[C@@H](Cc2ccc(O)cc2)C(=O)N[C@@H](CC)C(=O)N[C@@H](CC(N)=O)C(=O)N[C@@H](CCCNC(=N)N)C(=O)N(C)[C@@H](CCCC)C(=O)N[C@@H](CCCCC)C(=O)N2CCC[C@H]2C(=O)N[C@@H](C(C)(C)C)C(=O)N[C@@H](CO)C(=O)N[C@H](C(=O)N[C@@H](CC(=O)NCCOCCOCC(=O)N[C@@H](CC(=O)O)C(=O)NCCOCCOCC(=O)NCCCCCCCCCCC(=O)O)C(=O)O)CSCC(=O)N[C@@H](Cc2ccccc2)C(=O)N[C@@H](Cc2ccc(O)cc2)C(=O)N[C@@H](CC(=O)O)C1=O [compound 2059] ({CH2CO}-FYD[NHexGly]Y[Abu]NR[NMeNle][Ahp(2)]P[Tle]SC[βAsp][AEEA]D[AEEA][Aun]-OH; thioether N-14) | 37.4

Now from value to molecule:

Row | IC50 [nM] | Structure (SMILES)
3 | 32.7 | CCCCCCN1CC(=O)N[C@@H](Cc2ccc(O)cc2)C(=O)N[C@@H](CC2CCCCC2)C(=O)N[C@@H](CC(N)=O)C(=O)N[C@@H](CCCN)C(=O)N(C)[C@@H](CCCC)C(=O)N[C@@H](CCCCC)C(=O)N2CCC[C@H]2C(=O)N[C@@H](C(C)(C)C)C(=O)N[C@@H](CO)C(=O)N[C@H](C(=O)N[C@@H](CC(=O)NCCOCCOCC(=O)N[C@@H](CC(=O)O)C(=O)NCCOCCOCC(=O)NCCCCCCCCCCC(=O)O)C(=O)O)CSCC(=O)N[C@@H](Cc2ccccc2)C(=O)N[C@@H](Cc2ccc(O)cc2)C(=O)N[C@@H](CC(=O)O)C1=O [compound 2055] ({CH2CO}-FYD[NHexGly]Y[Cha]N[Orn][NMeNle][Ahp(2)]P[Tle]SC[βAsp][AEEA]D[AEEA][Aun]-OH; thioether N-14)
4 | 27.6 | CCCCCCN1CC(=O)N[C@@H](Cc2ccc(O)cc2)C(=O)N[C@@H](C)C(=O)N[C@@H](CC(N)=O)C(=O)N[C@@H](CCCNC(=N)N)C(=O)N(C)[C@@H](CCCC)C(=O)N[C@@H](CCCCC)C(=O)N2CCC[C@H]2C(=O)N[C@@H](C(C)(C)C)C(=O)N[C@@H](CO)C(=O)N[C@H](C(=O)N[C@@H](CC(=O)NCCOCCOCC(=O)N[C@@H](CC(=O)O)C(=O)NCCOCCOCC(=O)NCCCCCCCCCCC(=O)O)C(=O)O)CSCC(=O)N[C@@H](Cc2ccccc2)C(=O)N[C@@H](Cc2ccc(O)cc2)C(=O)N[C@@H](CC(=O)O)C1=O [compound 2058] ({CH2CO}-FYD[NHexGly]YANR[NMeNle][Ahp(2)]P[Tle]SC[βAsp][AEEA]D[AEEA][Aun]-OH; thioether N-14)
5 | 24.7 | CCCCCCN1CC(=O)N[C@@H](Cc2ccc(O)cc2)C(=O)N[C@@H](CC)C(=O)N[C@@H](CC(N)=O)C(=O)N[C@@H](CCCN)C(=O)N(C)[C@@H](CCCC)C(=O)N[C@@H](CCCCC)C(=O)N2CCC[C@H]2C(=O)N[C@@H](C(C)(C)C)C(=O)N[C@@H](CO)C(=O)N[C@H](C(=O)N[C@@H](CC(=O)NCCOCCOCC(=O)N[C@@H](CC(=O)O)C(=O)NCCOCCOCC(=O)NCCCCCCCCCCC(=O)O)C(=O)O)CSCC(=O)N[C@@H](Cc2ccccc2)C(=O)N[C@@H](Cc2ccc(O)cc2)C(=O)N[C@@H](CC(=O)O)C1=O [compound 2060] ({CH2CO}-FYD[NHexGly]Y[Abu]N[Orn][NMeNle][Ahp(2)]P[Tle]SC[βAsp][AEEA]D[AEEA][Aun]-OH; thioether N-14)
